Experiment [1] deals with T1, androgen receptor (AR-LBD) (Rattus norvegicus, UniProt P15207).
T1 construct: 5 μL of 2×AR-LBD/Fluoromone AL Red Complex contained in the kit; purchased Invitrogen
T1 sequence (P15207 651-882 limits assumed): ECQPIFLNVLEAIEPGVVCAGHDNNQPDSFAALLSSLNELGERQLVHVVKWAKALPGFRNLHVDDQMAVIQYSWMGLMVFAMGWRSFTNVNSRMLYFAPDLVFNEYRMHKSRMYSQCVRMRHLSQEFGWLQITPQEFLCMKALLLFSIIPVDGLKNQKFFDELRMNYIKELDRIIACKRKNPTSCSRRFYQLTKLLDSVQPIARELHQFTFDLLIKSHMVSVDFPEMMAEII
The experiment can be described thus: Evaluation of androgen receptor affinity (PolarScreen Androgen Receptor Competitor Assay Kit, Red; fluorescence polarization). The conditions noted are these: 22° C. for 5 hours, relative to binding rate of 1 μM DHT, read-out: AR affinity (pEC50) (converted). In a few lines: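 FP competition: compound + AR-LBD/Fluoromone AL Red tracer complex, 22° C, 5 h. Reference 1 μM DHT binding rate; pEC50 by 4-parameter fit.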
On the technique in general: Fluorescence polarisation rises when a labelled molecule tumbles more slowly, as on binding a larger partner.

Another experiment addresses T2, human androgen receptor (Homo sapiens, UniProt P10275).
T2 construct: expressed in transfected cells; host or cells: HEK293
T2 sequence (P10275 1-920): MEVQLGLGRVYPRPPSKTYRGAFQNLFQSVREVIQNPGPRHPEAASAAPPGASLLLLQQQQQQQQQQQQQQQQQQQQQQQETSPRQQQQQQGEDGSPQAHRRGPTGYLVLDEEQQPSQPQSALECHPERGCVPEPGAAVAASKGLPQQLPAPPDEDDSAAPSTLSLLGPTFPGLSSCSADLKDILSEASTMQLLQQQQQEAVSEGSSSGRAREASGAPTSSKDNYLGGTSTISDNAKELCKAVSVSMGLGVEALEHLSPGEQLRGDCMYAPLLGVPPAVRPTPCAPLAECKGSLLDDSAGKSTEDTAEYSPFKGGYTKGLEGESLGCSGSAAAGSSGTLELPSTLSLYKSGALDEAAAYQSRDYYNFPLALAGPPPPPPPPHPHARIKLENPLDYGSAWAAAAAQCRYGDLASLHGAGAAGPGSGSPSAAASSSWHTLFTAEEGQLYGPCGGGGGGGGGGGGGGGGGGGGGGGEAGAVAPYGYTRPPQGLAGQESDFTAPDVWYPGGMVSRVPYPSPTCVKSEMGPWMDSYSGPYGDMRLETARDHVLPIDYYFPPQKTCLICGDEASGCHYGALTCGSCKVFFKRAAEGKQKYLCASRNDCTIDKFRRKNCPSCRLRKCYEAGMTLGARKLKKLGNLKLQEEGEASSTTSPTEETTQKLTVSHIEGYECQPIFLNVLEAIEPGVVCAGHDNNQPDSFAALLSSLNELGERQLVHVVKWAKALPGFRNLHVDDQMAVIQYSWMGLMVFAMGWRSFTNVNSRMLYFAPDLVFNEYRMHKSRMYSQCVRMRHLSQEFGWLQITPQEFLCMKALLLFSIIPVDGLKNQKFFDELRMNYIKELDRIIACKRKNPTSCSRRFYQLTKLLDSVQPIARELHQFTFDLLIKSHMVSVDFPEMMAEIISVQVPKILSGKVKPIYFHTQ
The experiment can be described thus: Reporter assay of an androgen receptor responsive sequence (luciferase, transiently transfected HEK293 cells). Conditions: 24 hours incubation, relative to activity of 100 nM DHT, read-out: AR transcriptive activity (pEC50) (converted). Format: cell-based. Summed up:
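Agonism scored as pEC50, fitted by 4-parameter curve against the response to 100 nM DHT, from dual-luciferase readout after 24 h compound treatment. Cells were HEK293 co-transfected (3 h) with human AR expression vector, androgen-responsive firefly reporter and Renilla control, in charcoal-stripped serum.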
(A reporter such as luciferase makes a cellular process visible.)

Take `CCc1oc(N(Cc2cc3ccccc3s2)c2ccc(C#N)cc2)nc1C(=O)NS(C)(=O)=O` [Compound 626, 2-[N-(benzothiophen-2-ylmethyl)-4-cyano-anilino]-5-ethyl-N-methylsulfonyl-oxazole-4-carboxamide]: the figures for the EC50 (in experiment [1]; on human androgen receptor) were 15.8 nM and 79.4 nM, respectively.
In the case of `CCS(=O)(=O)NC(=O)c1nc(N(Cc2ccc(Cl)cc2)c2ccc(C#N)cc2)oc1C` [Compound 627, 2-[N-[(4-chlorophenyl)methyl]-4-cyano-anilino]-N-ethylsulfonyl-5-methyl-oxazole-4-carboxamide], the results for the EC50 (in experiment [1]; at human androgen receptor) were 50.1 nM and 1000 nM, respectively.
For `Cc1oc(N(Cc2ccc(Cl)cc2)c2ccc(C#N)cc2)nc1C(=O)NS(=O)(=O)C1CC1` [Compound 628, 2-[N-[(4-chlorophenyl)methyl]-4-cyano-anilino]-N-cyclopropylsulfonyl-5-methyl-oxazole-4-carboxamide], the EC50 was 200 nM in experiment [1] and more than 10000 nM at human androgen receptor.
`Cc1oc(N(Cc2nc3ccccc3s2)c2ccc(C#N)cc2)nc1C(=O)NS(C)(=O)=O` [Compound 630, 2-[N-(1,3-benzothiazol-2-ylmethyl)-4-cyano-anilino]-5-methyl-N-methylsulfonyl-oxazole-4-carboxamide]: the EC50 in experiment [1] was 158 nM; on human androgen receptor, 2510 nM.
With `CCc1oc(N(Cc2cccc(Cl)c2)c2ccc(C#N)cc2)nc1C(=O)NS(C)(=O)=O` [Compound 631, 2-[N-[(3-chlorophenyl)methyl]-4-cyano-anilino]-5-ethyl-N-methylsulfonyl-oxazole-4-carboxamide], the EC50 in experiment [1] was 39.8 nM; on human androgen receptor, 794 nM.
The corresponding values for `CCc1oc(N(Cc2ccc(OC(F)(F)F)cc2)c2ccc(C#N)cc2)nc1C(=O)NS(C)(=O)=O` [Compound 632, 2-[4-cyano-N-[[4-(trifluoromethoxy)phenyl]methyl]anilino]-5-ethyl-N-methylsulfonyl-oxazole-4-carboxamide] are 39.8 nM and 1000 nM.
`CCc1oc(N(Cc2ccc(Cl)c(Cl)c2)c2ccc(C#N)cc2)nc1C(=O)NS(C)(=O)=O` [Compound 633, 2-[4-cyano-N-[(3,4-dichlorophenyl)methyl]anilino]-5-ethyl-N-methylsulfonyl-oxazole-4-carboxamide]: the EC50 in experiment [1] was 31.6 nM; on human androgen receptor, 126 nM.
As to `CCc1oc(N(Cc2ccc(OC(F)F)cc2)c2ccc(C#N)cc2)nc1C(=O)NS(C)(=O)=O` [Compound 634, 2-[4-cyano-N-[[4-(difluoromethoxy)phenyl]methyl]anilino]-5-ethyl-N-methylsulfonyl-oxazole-4-carboxamide], the EC50 was 39.8 nM in experiment [1] and 398 nM on human androgen receptor.
The corresponding values for `CCc1oc(N(Cc2ccc(OC(F)F)cn2)c2ccc(C#N)cc2)nc1C(=O)NS(C)(=O)=O` [Compound 635, 2-[4-cyano-N-[[5-(difluoromethoxy)-2-pyridyl]methyl]anilino]-5-ethyl-N-methylsulfonyl-oxazole-4-carboxamide] are 398 nM and more than 10000 nM.
The like results for `CCc1oc(N(Cc2ccc(Br)cn2)c2ccc(C#N)cc2)nc1C(=O)NS(C)(=O)=O` [Compound 636, 2-[N-[(5-bromo-2-pyridyl)methyl]-4-cyano-anilino]-5-ethyl-N-methylsulfonyl-oxazole-4-carboxamide] were, in that order, 398 nM and 1580 nM.
For the compound `CCc1oc(N(Cc2ccccc2OC(F)F)c2ccc(C#N)cc2)nc1C(=O)NS(C)(=O)=O` [Compound 637, 2-[4-cyano-N-[[2-(difluoromethoxy)phenyl]methyl]anilino]-5-ethyl-N-methylsulfonyl-oxazole-4-carboxamide], the EC50 in experiment [1] was 158 nM; at human androgen receptor, more than 10000 nM.
For `CCc1oc(N(Cc2ccc(C(F)(F)F)cn2)c2ccc(C#N)cc2)nc1C(=O)NS(C)(=O)=O` [Compound 638, 2-[4-cyano-N-[[5-(trifluoromethyl)-2-pyridyl]methyl]anilino]-5-ethyl-N-methylsulfonyl-oxazole-4-carboxamide], the EC50 in experiment [1] was 200 nM; at human androgen receptor, 3160 nM.
The corresponding values for `CCc1oc(N(Cc2ccc(C(F)(F)F)nc2)c2ccc(C#N)cc2)nc1C(=O)NS(C)(=O)=O` [Compound 639, 2-[4-cyano-N-[[6-(trifluoromethyl)-3-pyridyl]methyl]anilino]-5-ethyl-N-methylsulfonyl-oxazole-4-carboxamide] are 251 nM and 7940 nM.
For `CS(=O)(=O)NC(=O)c1nc(N(Cc2ccc(F)cn2)c2ccc(C#N)cc2)sc1Br` [Compound 640, 5-bromo-2-[4-cyano-N-[(5-fluoro-2-pyridyl)methyl]anilino]-N-methylsulfonyl-thiazole-4-carboxamide], the EC50 is 398 nM in experiment [1] and 316 nM at human androgen receptor.
The corresponding values for `CS(=O)(=O)NC(=O)c1nc(N(Cc2ccc(Cl)cn2)c2ccc(C#N)cc2)sc1Br` [Compound 641, 5-bromo-2-[N-[(5-chloro-2-pyridyl)methyl]-4-cyano-anilino]-N-methylsulfonyl-thiazole-4-carboxamide] are 126 nM and 79.4 nM.
The corresponding values for `CS(=O)(=O)NC(=O)c1nc(N(Cc2ccc(Br)cn2)c2ccc(C#N)cc2)sc1Br` [Compound 642, 5-bromo-2-[N-[(5-bromo-2-pyridyl)methyl]-4-cyano-anilino]-N-methylsulfonyl-thiazole-4-carboxamide] are 79.4 nM and 50.1 nM.
The like results for `CS(=O)(=O)NC(=O)c1nc(N(Cc2ccc(C(F)(F)F)cn2)c2ccc(C#N)cc2)sc1Br` [Compound 643, 5-bromo-2-[4-cyano-N-[[5-(trifluoromethyl)-2-pyridyl]methyl]anilino]-N-methylsulfonyl-thiazole-4-carboxamide] were, in that order, 79.4 nM and 63.1 nM.
As to `CS(=O)(=O)NC(=O)c1nc(N(Cc2ccc(Cl)cn2)c2ccc(C(F)(F)F)nc2)sc1Br` [Compound 644, 5-bromo-2-[(5-chloro-2-pyridyl)methyl-[6-(trifluoromethyl)-3-pyridyl]amino]-N-methylsulfonyl-thiazole-4-carboxamide], the values for the EC50 (in experiment [1]; at human androgen receptor) were 200 nM and 501 nM, respectively.
As to `CS(=O)(=O)NC(=O)c1nc(N(Cc2ccc(C(F)(F)F)nc2)c2ccc(C#N)cc2)sc1Br` [Compound 645, 5-bromo-2-[4-cyano-N-[[6-(trifluoromethyl)-3-pyridyl]methyl]anilino]-N-methylsulfonyl-thiazole-4-carboxamide], the results for the EC50 (in experiment [1]; at human androgen receptor) were 63.1 nM and 1260 nM, respectively.
For `CS(=O)(=O)NC(=O)c1nc(N(Cc2ccc(Cl)cc2)c2ccc(C#N)cc2)oc1C1CC1` [Compound 646, 2-[N-[(4-chlorophenyl)methyl]-4-cyano-anilino]-5-cyclopropyl-N-methylsulfonyl-oxazole-4-carboxamide], the values for the EC50 (in experiment [1]; at human androgen receptor) were 39.8 nM and more than 10000 nM, respectively.
On to `CS(=O)(=O)NC(=O)c1nc(N(Cc2ccc(Cl)c(Cl)c2)c2ccc(C#N)cc2)oc1C1CC1` [Compound 647, 2-[4-cyano-N-[(3,4-dichlorophenyl)methyl]anilino]-5-cyclopropyl-N-methylsulfonyl-oxazole-4-carboxamide], for which the EC50 was 25.1 nM in experiment [1] and more than 10000 nM on human androgen receptor.

The record behind these values is patent US10689354B2, “Aminoazole derivative” (Teijin Pharma Limited, priority 2015, dated 2020).
